# Experiments:
# [1] = molecular target: PARP-1 (poly[ADP-ribose] polymerase 1) enzyme (Homo sapiens (Human), UniProt P09874); assay: PARP-1 (poly[ADP-ribose] polymerase 1) enzyme inhibitory ability, Trevigen assay kit; assay type: biochemical; details: for IC50: PARP-1 enzyme activity; for inhibition at 0.001 µM: 1 nM compound, read-out: PAR P-1 Inhibitory ability at 1 nM
# Procedure, shortened: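 After the 1 hour PARP reaction, wells were washed with PBS containing 0.1% triton X-100 and then PBS. Strep-HRP (50 μL) was bound for 1 hour, wells washed again, and 50 μL of TACS-sapphire substrate developed 15 minutes in the dark. Reactions were stopped with 50 μL of 5% phosphoric acid and absorbance read at 450 nm on a Victor3 reader.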
# [2] = test system: rat model for dry macular degeneration (sodium iodate); assay: Retinal layer protection of rats in sodium iodate model for dry macular degeneration; assay type: in vivo; details: 8-week-old rats, SI 50 mg/kg i.p., compound single intraperitoneal injection 15 mg/kg, H&E
# Protocol: In order to evaluate the inhibitory effect (protective effect) of the compounds according to the present invention on reducing the thickness of the retinal layer of rats in dry macular degeneration-like cells, the following experiment was performed.
# Specifically, 8-week-old rats were intraperitoneally injected with 50 mg/kg of sodium iodate (SI) to degenerate the retinal pigment epithelium and the photoreceptor cell layer to create a simulated animal model for dry macular degeneration. Retinal degeneration was observed 1 week after SI administration.
# After a single intraperitoneal injection of Example 46 or Example 1 at a concentration of 15 mg/kg to the rat model for dry macular degeneration, the inhibitory effect (protective effect) on reducing the thickness of the retinal layer of the rats was evaluated.
# In order to quantify the reduction of retinal thickness, the eyes extracted from the rats were fixed in a 4% glutaraldehyde solution for 3 hours and then embedded with paraffin. After preparing 5 μm-thick tissue fragments, the fragments were stained with a hematoxylin-eosin (H&E) solution and photographed with an optical microscope to measure the thickness of the retinal outer nuclear layer (ONL) of the retina. As a result, the thickness (μm) of the retinal ONL of the control group was calculated and expressed as 100% (n=3 times). […]
# ARPE-19 cells = assay: Retinal pigment epithelial cell line protection, H2O2-induced apoptosis, MTS activity assay; assay type: cell-based, human; details: 0.5 mM H2O2, 6 hours
# Protocol: In order to evaluate the protective effect of the compounds according to the present invention on the retinal pigment epithelial cell line under the condition of inducing dry macular degeneration-like apoptosis, the following experiment was performed.
# Specifically, ARPE-19 cells, which is a human retinal pigment epithelial cell line, were cultured in DMEM:F12 (Dulbecco's Modified Eagle's Medium: Ham's nutrient mixture F-12) containing 10% fetal bovine serum (FBS) and 1% penicillin/streptomycin. The cells were aliquoted in a well plate so that the number of cells per well was 1×10^4, and incubated in a 37° C. CO2 incubator for 12 hours. DMSO (0.1%) (control group) alone or various concentrations of the compounds of Examples 1 to 276 according to the present invention (experimental groups) were treated in a medium mixed with 0.5 mM H2O2 (control group), and then, the cells were further cultured in a 37° C. CO2 incubator for 6 hours to induce apoptosis.
# The degree of apoptosis was measured by an MTS (3-(4,5-dimethylthiazol-2-yl)-5-(3-carboxymethoxyphenyl)-2-(4-sulfophenyl)-2H-tetrazolium) activity assay method manufactured by Promega, the cell MTS activity level in the normal medium condition was set to 100%, and the relative degree of cell protection was converted and determined based on the MTS activity level of the control group in the 0.5 mM H2O2 treatment condition.
# The MTS activity assay evaluation method is a method of measuring the activity of NADH dehydrogenase in mitochondria in cells, and MTS is reduced by NADH dehydrogenase to form colored formazan. Through this method, live cells can be quantified, and cell proliferation and apoptosis can be quantified. After the above-mentioned damage stimulus was treated to the retinal pigment epithelial cell line, 15 μL of MTS activity assay kit manufactured by Promega was added to each well, and then reacted in a 37° C. CO2 incubator for 2 hours. The reacted wells were quantified by measuring the absorbance at 450 nm using a microplate reader Victor 3 manufactured by PerkinElmer, Inc., and the results are shown in Table 4 below.
# Sequence of PARP-1 (poly[ADP-ribose] polymerase 1) enzyme (P09874 whole entry): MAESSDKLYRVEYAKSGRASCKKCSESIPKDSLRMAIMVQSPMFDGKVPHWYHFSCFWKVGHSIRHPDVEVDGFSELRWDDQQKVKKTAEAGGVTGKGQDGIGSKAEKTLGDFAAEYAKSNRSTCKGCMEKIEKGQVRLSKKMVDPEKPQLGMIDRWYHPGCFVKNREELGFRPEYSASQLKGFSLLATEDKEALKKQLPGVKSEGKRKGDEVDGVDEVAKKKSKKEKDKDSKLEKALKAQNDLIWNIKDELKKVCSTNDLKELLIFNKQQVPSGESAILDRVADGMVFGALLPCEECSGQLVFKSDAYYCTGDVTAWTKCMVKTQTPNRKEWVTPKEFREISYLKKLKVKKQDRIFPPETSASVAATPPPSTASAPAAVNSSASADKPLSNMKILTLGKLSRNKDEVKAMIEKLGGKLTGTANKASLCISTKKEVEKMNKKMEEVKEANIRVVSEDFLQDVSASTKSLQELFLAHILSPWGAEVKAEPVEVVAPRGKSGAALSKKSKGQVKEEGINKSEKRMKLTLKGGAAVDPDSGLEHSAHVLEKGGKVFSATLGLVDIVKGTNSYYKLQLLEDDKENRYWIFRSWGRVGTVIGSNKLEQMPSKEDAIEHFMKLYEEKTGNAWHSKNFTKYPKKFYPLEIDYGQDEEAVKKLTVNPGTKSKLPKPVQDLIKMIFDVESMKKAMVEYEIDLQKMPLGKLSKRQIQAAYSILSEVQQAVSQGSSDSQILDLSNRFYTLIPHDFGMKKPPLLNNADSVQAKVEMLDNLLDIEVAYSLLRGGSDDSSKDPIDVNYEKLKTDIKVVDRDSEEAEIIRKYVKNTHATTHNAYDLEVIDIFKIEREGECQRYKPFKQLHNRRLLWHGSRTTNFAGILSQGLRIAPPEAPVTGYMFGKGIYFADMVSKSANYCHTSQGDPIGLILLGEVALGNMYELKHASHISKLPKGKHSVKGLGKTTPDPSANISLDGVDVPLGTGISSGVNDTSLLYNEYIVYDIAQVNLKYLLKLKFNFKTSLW
SMILES,IC50 [1] [nM],protection of retinal outer nuclear layer (ONL) thickness [2],inhibition at 0.001 µM [1] [%],"EC50 (ARPE-19 cells; Homo sapiens, ARPE-19, 6 h) [nM]",EC50 (ARPE-19 cells) [nM]
"N#Cc1ccc(N2CCN(CCCc3cc4cccc(F)c4c(=O)[nH]3)CC2)cc1 [Example 1, 4-(4-(3-(8-fluoro-1-oxo-1,2-dihydroisoquinolin-3-yl)propyl)piperazin-1-yl)benzonitrile]",2.3,the retina was protected,,,
"N#Cc1ccc(C2=CCN(CCCc3cc4cccc(F)c4c(=O)[nH]3)CC2)nc1 [Example 46, 1′-(3-(8-fluoro-1-oxo-1,2-dihydroisoquinolin-3-yl)propyl)-1′,2′,3′,6′-tetrahydro-[2,4′-bipyridine]-5-carbonitrile]",1.66,the retina was protected,50 to 80,,
"N#Cc1ccc(C2=CCN(C(=O)CCc3cc4cccc(F)c4c(=O)[nH]3)CC2)nc1 [Example 88, 1′-(3-(8-fluoro-1-oxo-1,2-dihydroisoquinolin-3-yl)propanoyl)-1′,2′,3′,6′-tetrahydro-[2,4′-bipyridine]-5-carbonitrile]",,,< 50,629,
"Cc1cc(F)cc2c(=O)[nH]c(CCC(=O)N3CC=C(c4ccc(C#N)cn4)CC3)cc12 [Example 165, 1′-(3-(7-fluoro-5-methyl-1-oxo-1,2-dihydroisoquinolin-3-yl)propanoyl)-1′,2′,3′,6′-tetrahydro-[2,4′-bipyridine]-5-carbonitrile]",,,< 50,< 150,108
"O=c1[nH]c(CCCN2C3CCC2CN(c2ccc(Cl)cc2)C3)cc2ncccc12 [Example 228, 7-(3-(3-(4-chlorophenyl)-3,8-diazabicyclo[3.2.1]octan-8-yl)propyl)-1,6-naphthyridin-5(6H)-one]",,,50 to 80,< 150,144
"N#Cc1ccc(OC2CC3CCC(C2)N3CCCc2cc3cccc(F)c3c(=O)[nH]2)cc1 (centres unmarked) [Example 273, 4-((8-(3-(8-fluoro-1-oxo-1,2-dihydroisoquinolin-3-yl)propyl)-8-azabicyclo[3.2.1]octan-3-yl)oxy)benzonitrile]",,,< 50,,
"N#Cc1ccc(OC2CC3CCC(C2)N3C(=O)CCc2cc3cccc(F)c3c(=O)[nH]2)cc1 (centres unmarked) [Example 274, 4-((8-(3-(8-fluoro-1-oxo-1,2-dihydroisoquinolin-3-yl)propanoyl)-8-azabicyclo[3.2.1]octan-3-yl)oxy)benzonitrile]",,,< 50,,
"Cc1ccc(F)c2c(=O)[nH]c(CCC(=O)N3CC(NC(=O)C4CC4)C3)cc12 [Example 275, N-(1-(3-(8-fluoro-5-methyl-1-oxo-1,2-dihydroisoquinolin-3-yl)propanoyl)azetidin-3-yl)cyclopropanecarboxamide]",,,< 50,,
"Cc1ccc(F)c2c(=O)[nH]c(CCC(=O)N3CCC(NC(=O)C4CC4)CC3)cc12 [Example 276, N-(1-(3-(8-fluoro-5-methyl-1-oxo-1,2-dihydroisoquinolin-3-yl)propanoyl)piperidin-4-yl)cyclopropanecarboxamide]",,,< 50,,
